According to patent publication US20140303092A1 (CHIMERIX, INC., priority 2011, published 2014):

Assay: Study HDP-CDV-201: safety and tolerability (adverse events, laboratory abnormalities, discontinuations)
Assay type: in vivo, human (adult allogeneic HSCT recipients)
Description: Clinical Studies of HDP-CDV were performed and described in detail in the following Examples. For example, HDP-CDV-201 is a placebo-controlled, dose-escalating trial in HSCT CMV (R+) recipients, evaluating the ability of HDP-CDV to prevent or control CMV infection was carried out. Five cohorts were established in which participants or subjects received either placebo or the HDP-CDV orally, in doses ranging from 40 mg weekly (QW) to 200 mg twice weekly (BIW). Subjects who were post-HSCT were enrolled at the time of engraftment and randomized to HDP-CDV or placebo (3 to 1 ratio) and received blinded therapy until approximately 100 day post-transplantation. HDP-CDV doses were 40 mg QW, 100 mg QW, 200 mg QW, 200 mg BIW and 100 mg BIW. Escalation to the next dose was decided by the data monitoring committee after review of the safety data from the previous Cohort. Subjects who developed CMV disease or CMV infection requiring pre-emptive therapy with local standard of care were discontinued from blinded therapy and followed for 4 weeks. Subjects who completed treatment with blinded therapy were followed for 8 weeks post-therapy.
Data from Study HDP-CDV-201 also provided characterization of the safety and tolerability profile of HDP-CDV when administered for the prevention or control of CMV infection in high risk (R^+) post-HSCT adult subjects.
The Safety population (SAFETY) included all randomized subjects who took at least one dose of study treatment. This population was used to summarize safety outcomes based on the treatment actually received, in cases where a subject was treated contrary to the randomization schedule.
The safety and tolerability profile of HDP-CDV, including subject demographics and Baseline characteristics; the AE profile; and laboratory abnormalities of interest were analyzed in the cohorts followed in this investigation.
Subjects completing the treatment period received a full course of study medication; those completing the entire study attended visits through 8 weeks of follow up. Subjects who discontinued treatment may have done so for protocol specified reasons (e.g. development of clinically significant CMV infection requiring preemptive treatment with excluded anti-CMV medications) or for other reasons (e.g., withdrawal, adverse events, loss to follow-up). The disposition of subjects in Study HDP-CDV-201 during the double-blind, placebo-controlled treatment period (through Week 11) is listed by dosing Cohort in TABLE 23.
Adverse events were examined by severity to ensure that all safety signals were identified in this study population. Because of the frequency of events in HSCT recipients, particular attention was given to evaluation of Grade 3 […], 4 (severe), and 5 (fatal) adverse events.
Only those preferred terms for which at least one Grade 3 or higher event was experienced in any treatment group are listed. Cytomegalovirus-related AEs are excluded from this analysis.
HDP-CDV is a lipid conjugate of CDV. Because CDV is known to have adverse effects on renal function and bone marrow, decreased GFR and persistent neutropenia were identified as AEs of special interest. Key renal and hematological (TABLE 30) laboratory parameters were measured and listed below by Study HDP-CDV-201 treatment groups. TABLE 30 includes abnormal levels of serum creatinine, neutrophils, platelets, WBCs, and hemoglobin and includes data at Screening and during the treatment period.
A common metric for unit based dosing of medications is by weight (mg/kg). When the distribution of weights was examined for all subjects participating in the study, the median was 78 kg and the lower 25th percentile weight was approximately 65 kg, which translates to a cut-off of ˜3 mg/kg for a 200 mg total weekly dose. Based upon this approach, a cut-off of 3 mg/kg was used to assess the frequency of diarrhea and associated GI AEs reported for the subjects in Cohorts 3 or 4a (TABLE 40).

[1] = Cohort 2, 100 mg QW, through Week 11

Compound: CCCCCCCCCCCCCCCCOCCCOP(=O)(O)COC(CO)Cn1ccc(N)nc1=O (stereo not drawn) [HDP-CDV]
- Alkaline Phosphatase (Screening) >2.5-5.0 × ULN, subjects (Cohort 2, 100 mg QW): 0
- Alkaline Phosphatase (Screening) >5.0-20.0 × ULN, subjects (Cohort 2, 100 mg QW): 0
- Alkaline Phosphatase (Screening) >20.0 × ULN, subjects (Cohort 2, 100 mg QW): 0
- Alkaline Phosphatase (Screening) >ULN-[…] ULN, subjects (Cohort 2, 100 mg QW): 6 (22.2%)
- Alkaline Phosphatase (any time during therapy) >2.5-5.0 × ULN, subjects (Cohort 2, 100 mg QW): 1 (3.7%)
- Alkaline Phosphatase (any time during therapy) >5.0-20.0 × ULN, subjects (Cohort 2, 100 mg QW): 1 (3.7%)
- Alkaline Phosphatase (any time during therapy) >20.0 × ULN, subjects (Cohort 2, 100 mg QW): 0
- Alkaline Phosphatase (any time during therapy) >ULN-[…] ULN, subjects (Cohort 2, 100 mg QW): 7 (25.9%)
- GI AE Leading to Study Drug Discontinuation: Abdominal pain, subjects (Cohort 2, 100 mg QW): 0
- GI AE Leading to Study Drug Discontinuation: Diarrhoea, subjects (Cohort 2, 100 mg QW): 0
- GI AE Leading to Study Drug Discontinuation: Dyspepsia, subjects (Cohort 2, 100 mg QW): 0
- GI AE Leading to Study Drug Discontinuation: Nausea, subjects (Cohort 2, 100 mg QW): 0
- GI AE Leading to Study Drug Discontinuation: Vomiting, subjects (Cohort 2, 100 mg QW): 1 (3.7%)
- GI AEs Leading to Study Drug Discontinuation: Total subjects discontinued (Cohort 2, 100 mg QW): 1 (3.7%)
- Gastrointestinal AE Abdominal discomfort, subjects (Cohort 2, 100 mg QW): 1 (3.7%)
- Gastrointestinal AE Abdominal distention, subjects (Cohort 2, 100 mg QW): 2 (7.4%)
- Gastrointestinal AE Abdominal pain upper, subjects (Cohort 2, 100 mg QW): 2 (7.4%)
- Gastrointestinal AE Abdominal pain, subjects (Cohort 2, 100 mg QW): 2 (7.4%)
- Gastrointestinal AE Constipation, subjects (Cohort 2, 100 mg QW): 0
- Gastrointestinal AE Diarrhoea, subjects (Cohort 2, 100 mg QW): 8 (29.6%)
- Gastrointestinal AE Diverticulum intestinal haemorragic, subjects (Cohort 2, 100 mg QW): 0
- Gastrointestinal AE Dyspepsia, subjects (Cohort 2, 100 mg QW): 2 (7.4%)
- Gastrointestinal AE Dysphagia, subjects (Cohort 2, 100 mg QW): 1 (3.7%)
- Gastrointestinal AE Epigastric discomfort, subjects (Cohort 2, 100 mg QW): 1 (3.7%)
- Gastrointestinal AE Flatulence, subjects (Cohort 2, 100 mg QW): 1 (3.7%)
- Gastrointestinal AE GERD, subjects (Cohort 2, 100 mg QW): 4 (14.8%)
- Gastrointestinal AE Gastritis, subjects (Cohort 2, 100 mg QW): 1 (3.7%)
- Gastrointestinal AE Haematochezia, subjects (Cohort 2, 100 mg QW): 0
- Gastrointestinal AE Haemorroids, subjects (Cohort 2, 100 mg QW): 0
- Gastrointestinal AE Large intestinal ulcer, subjects (Cohort 2, 100 mg QW): 0
- Gastrointestinal AE Nausea, subjects (Cohort 2, 100 mg QW): 5 (18.5%)
- Gastrointestinal AE Odynophagia, subjects (Cohort 2, 100 mg QW): 0
- Gastrointestinal AE Oesophagitis, subjects (Cohort 2, 100 mg QW): 0
- Gastrointestinal AE Retching, subjects (Cohort 2, 100 mg QW): 1 (3.7%)
- Gastrointestinal AE Vomiting, subjects (Cohort 2, 100 mg QW): 6 (22.2%)
- Hepatobiliary clinical AE Cholelithiasis, subjects (Cohort 2, 100 mg QW): 0
- Hepatobiliary clinical AE Hepatomegaly, subjects (Cohort 2, 100 mg QW): 0
- Hepatobiliary clinical AE Hyperbilirubinaemia, subjects (Cohort 2, 100 mg QW): 0
- Hepatobiliary clinical AE Jaundice, subjects (Cohort 2, 100 mg QW): 0
- Hepatobiliary clinical AE Liver injury, subjects (Cohort 2, 100 mg QW): 0
- Intensity of Gastrointestinal AEs, Grade 1, subjects (Cohort 2, 100 mg QW): 6 (22.2%)
- Intensity of Gastrointestinal AEs, Grade 2, subjects (Cohort 2, 100 mg QW): 10 (37.0%)
- Intensity of Gastrointestinal AEs, Grade 3, subjects (Cohort 2, 100 mg QW): 1 (3.7%)
- Intensity of Gastrointestinal AEs, Grade 4, subjects (Cohort 2, 100 mg QW): 0
- Intensity of Gastrointestinal AEs, Grade 5, subjects (Cohort 2, 100 mg QW): 0
- Proportion of Subjects with Stage 3 or 4 Gut GVHD (Cohort 2, 100 mg QW): 0%
- Serum ALT level, Median fold increase from Baseline at Follow-up Week 1 (Cohort 2, 100 mg QW): 1.50 fold
- Serum ALT level, Median fold increase from Baseline at Follow-up Week 4 (Cohort 2, 100 mg QW): 0.96 fold
- Serum ALT level, Peak Median fold increase from Baseline (Cohort 2, 100 mg QW): 1.53 fold
- Subjects completed study (Cohort 2, 100 mg QW): 14 (51.9%) n (%)
- Total Bilirubin (Screening) >1-[…] ULN, subjects (Cohort 2, 100 mg QW): 1 (3.8%)
- Total Bilirubin (Screening) >1.5-3 × ULN, subjects (Cohort 2, 100 mg QW): 1 (3.8%)
- Total Bilirubin (Screening) >3-10 × ULN, subjects (Cohort 2, 100 mg QW): 0
- Total Bilirubin (Screening) >10 × ULN, subjects (Cohort 2, 100 mg QW): 0
- Total Bilirubin (any time during therapy) >1-[…] ULN, subjects (Cohort 2, 100 mg QW): 0
- Total Bilirubin (any time during therapy) >1.5-3 × ULN, subjects (Cohort 2, 100 mg QW): 1 (3.7%)
- Total Bilirubin (any time during therapy) >3-10 × ULN, subjects (Cohort 2, 100 mg QW): 0
- Total Bilirubin (any time during therapy) >10 × ULN, subjects (Cohort 2, 100 mg QW): 0
- Abdominal pain leading to study drug withdrawal (Cohort 2, 100 mg QW, N = 27): 0%
- All AEs leading to withdrawal (Cohort 2, 100 mg QW, N = 27): 9 (33.3%)
- Diarrhoea leading to study drug withdrawal (Cohort 2, 100 mg QW, N = 27): 0%
- Dyspepsia leading to study drug withdrawal (Cohort 2, 100 mg QW, N = 27): 0%
- Nausea leading to study drug withdrawal (Cohort 2, 100 mg QW, N = 27): 0%
- TEAE ALT increased (Cohort 2, 100 mg QW, N = 27): 1 (3.7%) n (%)
- TEAE AST increased (Cohort 2, 100 mg QW, N = 27): 1 (3.7%) n (%)
- TEAE Abdominal pain (Cohort 2, 100 mg QW, N = 27): 2 (7.4%) n (%)
- TEAE Abdominal pain, Upper (Cohort 2, 100 mg QW, N = 27): 2 (7.4%) n (%)
- TEAE Acute GVHD (Cohort 2, 100 mg QW, N = 27): 7 (25.5%) n (%)
- TEAE Acute Myeloid Leukemia recurrent (Cohort 2, 100 mg QW, N = 27): 0 n (%)
- TEAE Acute Renal Failure (Cohort 2, 100 mg QW, N = 27): 0 n (%)
- TEAE Anxiety (Cohort 2, 100 mg QW, N = 27): 3 (11.1%) n (%)
- TEAE Arthralgias (Cohort 2, 100 mg QW, N = 27): 3 (11.1%) n (%)
- TEAE Back Pain (Cohort 2, 100 mg QW, N = 27): 2 (7.4%) n (%)
- TEAE Blood lactate dehydrogenase increased (Cohort 2, 100 mg QW, N = 27): 1 (3.7%) n (%)
- TEAE Creatinine increased (Cohort 2, 100 mg QW, N = 27): 5 (18.5%) n (%)
- TEAE Cytomegalovirus viremia (Cohort 2, 100 mg QW, N = 27): 4 (14.8%) n (%)
- TEAE Decreased appetite (Cohort 2, 100 mg QW, N = 27): 5 (18.5%) n (%)
- TEAE Diarrhoea (Cohort 2, 100 mg QW, N = 27): 8 (29.6%) n (%)
- TEAE Dysgeusia (Cohort 2, 100 mg QW, N = 27): 1 (3.7%) n (%)
- TEAE Fatigue (Cohort 2, 100 mg QW, N = 27): 3 (11.1%) n (%)
- TEAE GI Reflux Disease (Cohort 2, 100 mg QW, N = 27): 4 (14.8%) n (%)
- TEAE Gamma-glutamyltransferase increased (Cohort 2, 100 mg QW, N = 27): 1 (3.7%) n (%)
- TEAE Generalized oedema (Cohort 2, 100 mg QW, N = 27): 0 n (%)
- TEAE Hyperbilirubinaemia (Cohort 2, 100 mg QW, N = 27): 0 n (%)
- TEAE Hyperglycaemia (Cohort 2, 100 mg QW, N = 27): 1 (3.7%) n (%)
- TEAE Hyperkalemia (Cohort 2, 100 mg QW, N = 27): 1 (3.7%) n (%)
- TEAE Hypocalcaemia (Cohort 2, 100 mg QW, N = 27): 0 n (%)
- TEAE Hypokalaemia (Cohort 2, 100 mg QW, N = 27): 2 (7.4%) n (%)
- TEAE Hyponatraemia (Cohort 2, 100 mg QW, N = 27): 1 (3.7%) n (%)
- TEAE Increased leukocytosis (Cohort 2, 100 mg QW, N = 27): 0 n (%)
- TEAE Insomnia (Cohort 2, 100 mg QW, N = 27): 2 (7.4%) n (%)
- TEAE Liver function test abnormal (Cohort 2, 100 mg QW, N = 27): 1 (3.7%) n (%)
- TEAE Malnutrition (Cohort 2, 100 mg QW, N = 27): 0 n (%)
- TEAE Nausea (Cohort 2, 100 mg QW, N = 27): 5 (18.5%) n (%)
- TEAE Neutropenia (Cohort 2, 100 mg QW, N = 27): 4 (14.8%) n (%)
- TEAE Oedema peripheral (Cohort 2, 100 mg QW, N = 27): 5 (18.5%) n (%)
- TEAE Oral Candidiasis (Cohort 2, 100 mg QW, N = 27): 0 n (%)
- TEAE Pneumonia (Cohort 2, 100 mg QW, N = 27): 2 (7.4%) n (%)
- TEAE Pyrexia (Cohort 2, 100 mg QW, N = 27): 1 (3.7%) n (%)
- TEAE Recurrent flatulence (Cohort 2, 100 mg QW, N = 27): 1 (3.7%) n (%)
- TEAE Renal Failure (Cohort 2, 100 mg QW, N = 27): 2 (7.4%) n (%)
- TEAE Staphylococcal Bacteremia (Cohort 2, 100 mg QW, N = 27): 1 (3.7%) n (%)
- TEAE Thrombocytopenia (Cohort 2, 100 mg QW, N = 27): 3 (11.1%) n (%)
- TEAE Tremor (Cohort 2, 100 mg QW, N = 27): 3 (11.1%) n (%)
- TEAE Vomiting (Cohort 2, 100 mg QW, N = 27): 6 (22.2%) n (%)
- Vomiting leading to study drug withdrawal (Cohort 2, 100 mg QW, N = 27): 1 (3.7%)
- All AEs, Grade 5 (deaths) (Cohort 2, 100 mg QW, N = 27, entire study duration): 0%
- Proportion of Subjects with Grade 3 Diarrhea (Cohort 2, 100 mg QW, no Grade 4 or 5 diarrhea in any Cohort): 0%
- Subjects completed treatment [1]: 18 (66.7%) n (%)
- Subjects who permanently discontinued treatment [1]: 9 (33.3%) n (%)
- Grade of hepatobiliary AE acute liver injury, subject 3007 (Cohort 3): 3
